Experimental data: PubChem BioAssay (NCI)
“And” between values parts separate entries of the source, which are not always exact repeats. Equal values may be shown once.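 Compound exposure: 48 hours, 5 concentrations, 96-well plates. GI50: concentration for 50% inhibition of growth. At the TGI there is no net growth.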

Columns and labels:
Assay in all cases: DTP human tumour cell line panel, 48 h
CCRF-CEM leukemia = system: CCRF-CEM leukemia
NCI-H522 lung = system: NCI-H522 lung
A549 NSCLC = system: A549 NSCLC
PC-3 prostate = system: PC-3 prostate
UO-31 renal = system: UO-31 renal
SK-MEL-28 melanoma = system: SK-MEL-28 melanoma
NCI-H460 lung = system: NCI-H460 lung
MDA-MB-231 breast = system: MDA-MB-231 breast
TK-10 renal = system: TK-10 renal
IGROV1 ovarian = system: IGROV1 ovarian

| Structure (SMILES) | GI50 (CCRF-CEM leukemia) [µM] | TGI (CCRF-CEM leukemia) | GI50 (NCI-H522 lung) | TGI (NCI-H522 lung) | GI50 (A549 NSCLC) | TGI (A549 NSCLC) | GI50 (PC-3 prostate) | TGI (PC-3 prostate) | GI50 (UO-31 renal) | TGI (UO-31 renal) | GI50 (SK-MEL-28 melanoma) | TGI (SK-MEL-28 melanoma) | GI50 (NCI-H460 lung) | TGI (NCI-H460 lung) | GI50 (MDA-MB-231 breast) | TGI (MDA-MB-231 breast) | GI50 (TK-10 renal) | TGI (TK-10 renal) | GI50 (IGROV1 ovarian) | TGI (IGROV1 ovarian) |
| --- | --- | --- | --- | --- | --- | --- | --- | --- | --- | --- | --- | --- | --- | --- | --- | --- | --- | --- | --- | --- |
| Cc1ccc(S(=O)(=O)c2ccsc2N)cc1 | > 100 | > 100 µM | > 100 µM | > 100 µM | > 100 µM | > 100 µM | > 100 µM | > 100 µM | 47.2 µM | > 100 µM | > 100 µM | > 100 µM | > 100 µM | > 100 µM | > 100 µM | > 100 µM | > 100 µM | > 100 µM | > 100 µM | > 100 µM |
| O=C1NC(O)CCN1C1CC(O)C(CO)O1 (stereo unspecified) |  | > 100 µM |  | > 100 µM |  | > 100 µM |  | > 100 µM |  | > 100 µM |  | > 100 µM |  | > 100 µM |  | > 100 µM |  | > 100 µM |  | > 100 µM |
| N#Cc1c(NCc2ccccc2)nc(NCc2ccccc2)c(C#N)c1-c1cccc(O)c1 | 3.38 | > 100 µM | 5.89 µM | 33.1 µM | 13.3 µM | 63.5 µM | 4.66 µM | 28.8 µM | 6.12 µM | 87.6 µM | 61 µM | > 100 µM | 14.9 µM | 31.4 µM | 2.23 µM | 7.34 µM | 4.11 µM | 17.4 µM | 19.7 µM | 41.1 µM |
| O=[N+]([O-])c1ccc(NC(=S)N/N=C(\c2ccccc2)c2ccccn2)cc1 | 0.0073 | 2.31 µM and 10.2 µM | 1.97 µM | 4.2 µM and 1.48 µM |  | 3.37 µM and 3.96 µM | 1.16 µM | 2.91 µM and 2.54 µM |  | 2.79 µM | 1.38 µM | 2.9 µM and 2.69 µM | 1.47 µM | 3.36 µM and 11.9 µM | 0.0286 µM | 2.06 µM and 1.86 µM |  | 2.51 µM |  | 3.18 µM and 3.43 µM |
| COc1cc(N=Nc2cccc(S(N)(=O)=O)c2)c2ccccc2c1N |  | 38.6 µM |  | 30.6 µM |  | 33 µM |  | 23.9 µM |  | 30.6 µM |  | 19.9 µM |  | 25.7 µM |  | 26.5 µM |  | 30.1 µM |  | 28.4 µM |
| O=C(Nc1cccc([N+](=O)[O-])c1)c1cc2ccccc2cc1O | 2.38 | 6.66 µM | 0.384 µM | 2.66 µM | 2.84 µM | > 100 µM | 1.49 µM | > 30.5 µM | 1.25 µM | 7.46 µM | 3.23 µM | > 100 µM | 1.87 µM | > 100 µM | 1.47 µM | 3.64 µM | 4.03 µM | 9.46 µM | 1.3 µM | > 26.1 µM |
| C[C@]12CC[C@H]3[C@@H](CCC4=C[C@@H](OC5OCC(OC6OC(CO)C(O)C(O)C6O)C(O)C5O)CC[C@@]43C=O)[C@@]1(O)CCC2C1=CC(=O)OC1 (stereo partly specified) |  | > 100 µM |  | 2.88 µM |  | 0.484 µM |  | 4.14 µM |  | 3.45 µM |  | 9.62 µM |  | 0.534 µM |  | > 73.7 µM |  | 8.19 µM |  | 2.66 µM |
| N#Cc1ncc(N2C(=O)C3(CCC3)N(c3ccc(OC4CCNCC4)nc3)C2=S)cc1C(F)(F)F | 13.5 | 39.1 µM | 18.1 µM | 35.5 µM | 27.7 µM | > 100 µM | 13.9 µM | 28.9 µM | 11 µM | 23.3 µM | 13.8 µM | 27.4 µM | 16.8 µM | 31.7 µM | 16.4 µM | 33.6 µM | 17.9 µM | 39.1 µM | 17.1 µM | 36.3 µM |
| O=C(Nc1ccccc1C(=O)Nc1nccs1)c1ccccc1 |  | > 100 µM |  | > 100 µM |  | > 100 µM |  | > 100 µM |  | > 100 µM |  | > 100 µM |  | > 100 µM |  | > 100 µM |  | > 100 µM |  | > 100 µM |
| C=C1C[C@@H]2[C@H](CC[C@]3(C)C(=O)CC[C@@H]23)[C@@]2(C)C=CC(=O)C=C12 | 24.5 | > 74.9 µM | 8.79 µM | > 38.8 µM | 11.5 µM | > 51.8 µM | 66.9 µM | > 100 µM | 22 µM | > 56.5 µM | 42.5 µM | > 100 µM | 22 µM | > 63.2 µM | 35 µM | > 100 µM | 48.1 µM | > 100 µM | 34.4 µM | > 100 µM |
| COc1cc(/C=C/c2cc(/C=C/c3ccc(O)c(OC)c3)[nH]c(=O)n2)ccc1O | 2.1 | 6.22 µM | 2.57 µM | 7.95 µM | 5.2 µM | 27.6 µM | 3.2 µM | 18.6 µM | 3.71 µM | 58.6 µM | 3.05 µM | 13.1 µM | 3.12 µM | 18.5 µM | 3.59 µM | > 100 µM | 6.13 µM | 36 µM | 4.41 µM | > 100 µM |
| O=c1oc2cc(OS(=O)(=O)c3ccccc3)ccc2c2c1CCCCC2 | 4.56 | > 100 µM | 6.44 µM | > 100 µM | 4.78 µM | > 100 µM | 2.61 µM | > 100 µM | 8 µM | > 100 µM | > 100 µM | > 100 µM | 4.27 µM | > 100 µM | > 100 µM | > 100 µM | > 100 µM | > 100 µM | > 100 µM | > 100 µM |
| Cc1[nH]n(-c2ccccc2)c(=O)c1C(=O)c1ccccc1 | > 25 | > 25 µM | > 25 µM | > 25 µM | 11.7 µM | > 25 µM | 19.7 µM | > 25 µM | > 25 µM | > 25 µM | > 25 µM | > 25 µM | > 19.5 µM | > 25 µM | > 25 µM | > 25 µM | > 25 µM | > 25 µM | > 15.4 µM | > 25 µM |
| O=c1[nH]cnc2nc(-c3ccc(N(CCCl)CCCl)cc3)[nH]c12 | > 100 | > 100 µM | > 100 µM | > 100 µM | 6.19 µM | > 100 µM | > 100 µM | > 100 µM | 10.4 µM | 38.3 µM | > 100 µM | > 100 µM | 4.51 µM | > 100 µM | 3.23 µM | > 100 µM | 15.4 µM | 48.4 µM | 26.9 µM | > 100 µM |
| C[C@H]1CC2=CC(=O)CC[C@]2(C)[C@H]2CC[C@@]3(C)[C@@H](CC[C@]3(C)O)[C@H]12 | 12.1 | 53.7 µM | 28.4 µM | 75.5 µM | 31.9 µM | > 100 µM | 8.65 µM | 99.7 µM | 20.6 µM | > 78.5 µM | 29.3 µM | > 85.2 µM | 30 µM | > 100 µM | 35 µM | > 100 µM | 31.5 µM | 97.5 µM | 27.3 µM | > 73.3 µM |
| COc1cc(CNC(=O)CCSc2nc3ccccc3c(=O)n2Cc2cc(OC)c(OC)c(OC)c2)cc(OC)c1OC | 4.91 | > 100 µM | 6.55 µM | 27.5 µM | 6.33 µM | > 100 µM | 10.8 µM | > 100 µM | 5.9 µM | > 100 µM | 6.69 µM | > 100 µM | 4.19 µM | 27.5 µM | 5.36 µM | 48.3 µM | 11 µM | 44.4 µM | 13.2 µM | > 100 µM |
| COc1ccc(/C=C/c2cnc3ccccc3n2)cc1OC |  | > 100 µM |  | 69.5 µM |  | > 100 µM |  | > 100 µM |  | > 100 µM |  | > 100 µM |  | > 100 µM |  | > 100 µM |  | > 100 µM |  | > 100 µM |
| COc1cc(/C=C\c2cc(OC)c(OC)c(OC)c2)cc(NS(=O)(=O)c2cccc(Cl)c2)c1OC | 0.0492 | > 100 µM | 0.0373 µM | 88.2 µM | 0.264 µM | > 100 µM | 0.0452 µM | > 100 µM | 0.0937 µM | > 100 µM | 1.61 µM | 49 µM | 0.0362 µM | > 100 µM | 0.259 µM | > 100 µM | 2.01 µM | > 100 µM | 0.0887 µM | > 100 µM |
| COc1cccc2ccc3c(c12)C(=O)OC31CCc2c(C)cccc21 (stereo unspecified) |  | > 100 µM |  | > 31.6 µM |  | > 46.4 µM |  | > 100 µM |  | 26.3 µM |  | > 46.4 µM |  | > 31.6 µM |  | > 100 µM |  | > 100 µM |  | > 46.4 µM |
| CS(=O)(=O)Nc1cc(-c2ccc3ncnc(Nc4cccc(Cl)c4F)c3c2)cnc1Cl | 2.59 | > 100 µM | 3 µM | 17 µM | 5.3 µM | 24.1 µM | 2.27 µM | 11.6 µM | 1.24 µM | 4.3 µM | 1.59 µM | 9.27 µM | 4.09 µM | > 100 µM | 2.1 µM | 8.06 µM | 1.77 µM | 8.73 µM | 1.02 µM | 4.34 µM |
| CC[C@H](C)[C@H](NC(=O)c1nccn1C)C(=O)N(C)[C@H](C[C@@H](OC(C)=O)c1nc(C(=O)N[C@@H](Cc2ccccc2)C[C@H](C)C(=O)OC)cs1)C(C)C | 1.04 | > 33.3 µM | 0.351 µM | 1.56 µM | 2.43 µM | > 33.3 µM | 1.11 µM | > 33.3 µM | 2.9 µM | > 33.3 µM | 5.05 µM | > 33.3 µM | 1.22 µM | > 33.3 µM | 1.17 µM | 22 µM | 7.49 µM | > 33.3 µM | 0.704 µM | > 33.3 µM |
| CC(C)(F)C[C@H](N[C@@H](c1ccc(-c2ccc(S(C)(=O)=O)cc2)cc1)C(F)(F)F)C(=O)NC1(C#N)CC1 | > 100 | > 100 µM | 15.8 µM and 24.7 µM | 55 µM and > 100 µM | > 55 µM and 41.8 µM | > 100 µM | 36.9 µM and 27.9 µM | 55 µM and > 100 µM | 49.3 µM and 23.2 µM | 55 µM and > 100 µM | 49.1 µM and 36.3 µM | 55 µM and > 100 µM | 33.6 µM and 49.7 µM | 55 µM and > 100 µM | 18.6 µM and 34.4 µM | 55 µM and > 100 µM | > 55 µM and 31.1 µM | > 55 µM and 81.2 µM | 33.2 µM and 30.2 µM | 55 µM and 91.2 µM |
